We go through two compounds from patent US20260250300A1, “POLYMORPHS AND THEIR USE FOR TREATING CANCER” (Cairn Therapeutics, Inc., priority 2023, published 2026).

Type in all cases: physicochemical
Data set [1] can be described thus: Stability study of crystalline Forms A and C at 25° C./60% RH and 40° C./75% RH, analysed by XRPD. The conditions noted are these: after 4 weeks. As for the experimental part:
A sample of each of crystalline Forms A and C was placed in an uncapped vial and exposed to 25° C./60% RH and 40° C./75% relative humidity (“RH”) for 4 weeks (Table 24). The resultant samples were analyzed by XRPD at T=1, 2, and 4 weeks to evaluate their physical stability.
(§1) A Rigaku SmartLab X-Ray Diffractometer was configured in Bragg-Brentano reflection geometry equipped with a beam stop and knife edge to reduce incident beam and air scatter. No filter was used for crystalline Form C anhydrate crystalline Form E DMSO solvate. Spinning rate of 17 rpm was used for crystalline Form C anhydrate analysis. Other parameters are the same as described in Table 27.

The nature of data set [2]: Conversion rate of crystalline Form A hydrate to crystalline Form C anhydrate in ethanol at about 50° C., XRPD. The conditions noted are these: slurry in absolute ethanol at about 50° C., 1 hour. As for the experimental part:
The conversion rate of the crystalline Form A hydrate to the crystalline Form C anhydrate in ethanol at about 50° C. was investigated (Table 25). Slurries were prepared using Compound 1 crystalline Form A hydrate as starting material. […] Each slurry was stirred magnetically at about 50° C. and subsequently vacuum filtered to collect the solid at given times. The resulting solids were analyzed by XRPD immediately. […] A Rigaku SmartLab X-Ray Diffractometer was configured in Bragg-Brentano reflection geometry equipped with a beam stop and knife edge to reduce incident beam and air scatter. […] Spinning rate of 17 rpm was used for crystalline Form C anhydrate analysis. Other parameters are the same as described in Table 27.

Data set [3] can be described thus: Dynamic vapor sorption (DVS) analysis. Particulars: 25° C., 5 to 95% RH. As for the experimental part: Different polymorphic forms of a compound may have different hygroscopic properties. […] A sample weight of less than 10 mg was loaded into a metal-coated quartz pan for analysis. The sample was analyzed at 25° C. after equilibrated to 5% relative humidity (RH) in 10% RH steps from 5 to 95% RH (adsorption cycle) and from 95 to 5% RH (desorption cycle). The movement from one step to the next occurred either after satisfying the equilibrium criterion of 0.01% weight change in 5 minutes or, if the equilibrium criterion was not met, after 90 minutes. The percent weight change values are calculated using Microsoft Excel®. The DVS analysis was carried out using a TA Instruments Q5000 Dynamic Vapor Sorption analyzer. […]

Data set [4] is described as follows: Relative stability of Form A hydrate and Form C anhydrate in ethanol and ethanol/water slurries. The protocol:
The relative stability of the crystalline Form A hydrate and Compound 1 crystalline Form C anhydrate was evaluated in ethanol and ethanol/water between ambient temperature and 50° C.
Crystalline Form C anhydrate was prepared by slurrying crystalline Form A hydrate in absolute ethanol at 40° C. for about two days (Sample 1, FIG. 25A). Attempts to prepare amorphous material by cold precipitation and lyophilization were carried out but were unsuccessful. […] The lyophilization experiment produced material having an XRPD pattern consistent with crystalline Form E DMSO solvate (FIG. 25C).
To prepare the crystalline Form C anhydrate, 249 mg of Compound 1 crystalline Form A hydrate was placed in an 8 mL glass vial followed by 2.0 mL of absolute ethanol. The resulting slurry was stirred magnetically at 40° C. for about two days. The slurry was vacuum filtered and the solids allowed to air dry for 15 minutes at room temperature.

Data set [5] in a line: Slurry experiments using Compound 1 crystalline Form A hydrate in methanol and methanol:water, XRPD. Particulars: two days, 30 mg. As for the experimental part:
The nature of this peak is unknown. […]
as §1

Setting [6] is: listed as Compound 1 crystalline Form A hydrate.

As for `CN1Oc2cc3c(c4cccc(c24)C1=O)[C@H](CCl)CN3C(=O)c1cc2cc(NC(=O)c3cc4ccccc4[nH]3)ccc2[nH]1` [Crystalline Form A hydrate, (S)—N-(2-(10-(Chloromethyl)-5-methyl-4-oxo-5,8,9,10-tetrahydro-4H-pyrrolo[3′,2′: 5,6]naphtho[1,8-de][1,2]oxazine-8-carbonyl)-1H-indol-5-yl)-1H-indole-2-carboxamide], in data set [1], the “crystalline Form conversion (physical stability)” value is listed as “No crystalline Form conversion was observed”. The XRPD Result result in data set [2] is given as “converted to crystalline Form C anhydrate completely”; in data set [5] (95:5 MeOH:water) it was “remained that of the crystalline Form A hydrate”; in data set [5] (MeOH), “remained that of the crystalline Form A hydrate”. Also, the results for the “hygroscopicity (DVS)” value in data set [3] (listed as Compound 1 Crystalline Form A hydrate) and in data set [3] (setting [6]) were “Slightly hygroscopic” and “slightly hygroscopic”, respectively. For the same compound, the DVS weight gain entry in data set [3] (setting [6]) is given as “less than 0.5%”. In addition, the form conversion result in data set [4] (absolute ethanol, about 40° C., about two days) is “converts to the crystalline Form C anhydrate”; in data set [4] (ethanol at about 50° C., slurrying for four days) it was “converted to crystalline Form C anhydrate”. Moreover, in data set [4] (ethanol and ethanol/water, between ambient temperature and 50° C.), the “relative stability (form conversion)” value is “converted to the crystalline Form C anhydrate except when the water activity of the solvent was greater than 0.31”.
In the case of `CN1Oc2cc3c(c4cccc(c24)C1=O)[C@H](CCl)CN3C(=O)c1cc2cc(NC(=O)c3cc4ccccc4[nH]3)ccc2[nH]1` [Crystalline Form C anhydrate, (S)—N-(2-(10-(Chloromethyl)-5-methyl-4-oxo-5,8,9,10-tetrahydro-4H-pyrrolo[3′,2′: 5,6]naphtho[1,8-de][1,2]oxazine-8-carbonyl)-1H-indol-5-yl)-1H-indole-2-carboxamide], the DVS weight gain entry in data set [3] (listed as Compound 1 Crystalline Form C anhydrate) is on record as “Weight gain of 0.35% at 5-95% RH”; in data set [3] (listed as Compound 1 crystalline Form C anhydrate), 0.35%.
